US20140187786A1, “1,3,4-TRISUBSTITUTED BENZENES” (EnVivo Pharmaceuticals, Inc., priority 2007, published 2014)

melting point: 142 to 143 °C
SMILES: CC(C)CC(C(=O)O)c1ccc(-c2ccc(C(F)(F)F)cc2)c(OCC2CC2)c1 (stereo not shown) [Example 142, 2-(2-cyclopropylmethoxy-4′-trifluoromethyl-biphenyl-4-yl)-4-methyl-pentanoic acid]
